Laboratory results taken from the OligoGym collection.
HELM strings list units from the 5' end as sugar, base in round brackets, then linkage (d deoxyribose, r ribose, m 2'-O-methyl, p phosphodiester). Strings are as the collection lists them, not checked against the first reports. ss, as = sense and antisense strand; [fl2r] = 2'-fluoro

Conditions: siRNA
Further: test system not given here.

Substance	target mRNA knockdown [%]
RNA1{r(A)p.r(G)p.r(A)p.r(G)p.r(G)p.r(A)p.r(C)p.r(C)p.m(U)p.r(A)p.r(G)p.r(A)p.r(A)p.r(G)p.r(G)p.r(C)p.r(G)p.r(G)p.r(C)p.r(T)p.r(T)}|RNA2{r(G)p.r(C)p.r(C)p.r(G)p.r(C)p.r(C)p.m(U)p.m(U)p.r(C)p.m(U)p.r(A)p.r(G)p.r(G)p.m(U)p.r(C)p.r(C)p.m(U)p.r(C)p.m(U)p.r(T)p.r(T)}$$$RNA1{StrandType:ss}|RNA2{StrandType:as}$	72
RNA1{r(A)p.r(G)p.r(A)p.r(G)p.r(G)p.r(A)p.r(C)p.r(C)p.m(U)p.r(A)p.r(G)p.r(A)p.r(A)p.r(G)p.r(G)p.r(C)p.r(G)p.r(G)p.r(C)p.r(T)p.r(T)}|RNA2{r(G)p.r(C)p.r(C)p.r(G)p.r(C)p.r(C)p.r(U)p.r(U)p.r(C)p.m(U)p.r(A)p.r(G)p.r(G)p.r(U)p.r(C)p.r(C)p.r(U)p.r(C)p.r(U)p.r(T)p.r(T)}$$$RNA1{StrandType:ss}|RNA2{StrandType:as}$	89
RNA1{r(A)p.r(G)p.r(A)p.r(G)p.r(G)p.r(A)p.r(C)p.r(C)p.r(U)p.m(A)p.r(G)p.r(A)p.r(A)p.r(G)p.r(G)p.r(C)p.r(G)p.r(G)p.r(C)p.r(T)p.r(T)}|RNA2{r(G)p.r(C)p.r(C)p.r(G)p.r(C)p.r(C)p.r(U)p.r(U)p.r(C)p.r(U)p.r(A)p.r(G)p.r(G)p.r(U)p.r(C)p.r(C)p.r(U)p.r(C)p.r(U)p.r(T)p.r(T)}$$$RNA1{StrandType:ss}|RNA2{StrandType:as}$	92
RNA1{r(A)p.r(G)p.r(A)p.r(G)p.r(U)p.m(U)p.r(G)p.r(G)p.r(G)p.r(A)p.r(U)p.m(U)p.r(A)p.r(G)p.r(G)p.r(G)p.r(C)p.r(U)p.r(U)p.r(T)p.r(T)}|RNA2{r(A)p.r(A)p.r(G)p.r(C)p.r(C)p.r(C)p.m(U)p.r(A)p.r(A)p.r(U)p.r(C)p.r(C)p.m(C)p.r(A)p.r(A)p.r(C)p.r(U)p.r(C)p.r(U)p.r(T)p.r(T)}$$$RNA1{StrandType:ss}|RNA2{StrandType:as}$	68
RNA1{r(A)p.r(G)p.r(A)p.r(G)p.r(U)p.r(U)p.r(G)p.r(G)p.r(G)p.r(A)p.r(U)p.r(U)p.r(A)p.r(G)p.r(G)p.r(G)p.r(C)p.r(U)p.r(U)p.r(T)p.r(T)}|RNA2{m(A)p.r(A)p.m(G)p.r(C)p.m(C)p.r(C)p.m(U)p.r(A)p.m(A)p.r(U)p.m(C)p.r(C)p.m(C)p.r(A)p.m(A)p.r(C)p.m(U)p.r(C)p.m(U)p.r(T)p.r(T)}$$$RNA1{StrandType:ss}|RNA2{StrandType:as}$	45
RNA1{r(A)p.r(G)p.r(A)p.r(G)p.r(U)p.r(U)p.r(G)p.r(G)p.r(G)p.r(A)p.r(U)p.r(U)p.r(A)p.r(G)p.r(G)p.r(G)p.r(C)p.r(U)p.r(U)p.r(T)p.r(T)}|RNA2{r(A)p.r(A)p.r(G)p.r(C)p.r(C)p.r(C)p.m(U)p.r(A)p.r(A)p.r(U)p.r(C)p.r(C)p.r(C)p.r(A)p.r(A)p.r(C)p.r(U)p.r(C)p.r(U)p.r(T)p.r(T)}$$$RNA1{StrandType:ss}|RNA2{StrandType:as}$	69
RNA1{r(A)p.r(G)p.r(A)p.r(U)p.r(G)p.r(U)p.r(U)p.r(C)p.r(U)p.r(C)p.r(G)p.r(U)p.r(A)p.r(A)p.r(G)p.r(G)p.r(A)p.r(C)p.r(G)p.r(T)p.r(T)}|RNA2{r(C)p.r(G)p.r(U)p.r(C)p.r(C)p.r(U)p.m(U)p.r(A)p.r(C)p.r(G)p.r(A)p.r(G)p.r(A)p.r(A)p.r(C)p.r(A)p.r(U)p.r(C)p.r(U)p.r(T)p.r(T)}$$$RNA1{StrandType:ss}|RNA2{StrandType:as}$	69
RNA1{r(A)p.r(G)p.r(C)p.m(C)p.r(A)p.m(C)p.r(A)p.r(U)p.r(U)p.r(U)p.r(C)p.m(U)p.r(A)p.r(G)p.r(G)p.r(A)p.r(G)p.r(A)p.r(U)p.r(T)p.r(T)}|RNA2{r(A)p.r(U)p.r(C)p.r(U)p.r(C)p.r(C)p.m(U)p.r(A)p.m(G)p.r(A)p.r(A)p.r(A)p.r(U)p.r(G)p.m(U)p.r(G)p.r(G)p.r(C)p.r(U)p.r(T)p.r(T)}$$$RNA1{StrandType:ss}|RNA2{StrandType:as}$	26
RNA1{r(A)p.r(G)p.r(C)p.m(C)p.r(A)p.r(C)p.r(A)p.r(U)p.r(U)p.r(U)p.r(C)p.r(U)p.m(A)p.r(G)p.r(G)p.r(A)p.r(G)p.r(A)p.r(U)p.r(T)p.r(T)}|RNA2{r(A)p.r(U)p.r(C)p.r(U)p.r(C)p.r(C)p.r(U)p.r(A)p.r(G)p.r(A)p.r(A)p.r(A)p.m(U)p.r(G)p.r(U)p.r(G)p.r(G)p.r(C)p.r(U)p.r(T)p.r(T)}$$$RNA1{StrandType:ss}|RNA2{StrandType:as}$	29
RNA1{r(A)p.r(G)p.r(C)p.r(C)p.[fl2r](C)p.r(A)p.r(G)p.r(A)p.[fl2r](U)p.r(A)p.r(G)p.r(C)p.r(U)p.r(C)p.r(U)p.r(U)p.[fl2r](C)p.r(A)p.r(G)p.r(T)p.r(T)}|RNA2{r(C)p.[fl2r](U)p.r(G)p.r(A)p.r(A)p.r(G)p.r(A)p.r(G)p.r(C)p.[fl2r](U)p.r(A)p.r(U)p.r(C)p.[fl2r](U)p.r(G)p.r(G)p.r(G)p.r(C)p.r(U)p.r(T)p.r(T)}$$$RNA1{StrandType:ss}|RNA2{StrandType:as}$	61
RNA1{r(A)p.r(G)p.r(C)p.r(C)p.r(C)p.r(A)p.r(G)p.r(A)p.[fl2r](U)p.r(A)p.r(G)p.r(C)p.r(U)p.r(C)p.r(U)p.r(U)p.r(C)p.r(A)p.r(G)p.r(T)p.r(T)}|RNA2{r(C)p.r(U)p.r(G)p.r(A)p.r(A)p.r(G)p.r(A)p.r(G)p.r(C)p.[fl2r](U)p.r(A)p.r(U)p.r(C)p.r(U)p.r(G)p.r(G)p.r(G)p.r(C)p.r(U)p.r(T)p.r(T)}$$$RNA1{StrandType:ss}|RNA2{StrandType:as}$	69
RNA1{r(A)p.r(G)p.r(C)p.r(C)p.r(U)p.r(C)p.[fl2r](C)p.r(A)p.r(A)p.r(A)p.r(C)p.r(U)p.r(C)p.r(C)p.[fl2r](U)p.r(A)p.r(G)p.r(C)p.r(U)p.r(T)p.r(T)}|RNA2{r(A)p.r(G)p.r(C)p.r(U)p.r(A)p.r(G)p.r(G)p.r(A)p.r(G)p.r(U)p.r(U)p.r(U)p.r(G)p.r(G)p.r(A)p.r(G)p.r(G)p.r(C)p.r(U)p.r(T)p.r(T)}$$$RNA1{StrandType:ss}|RNA2{StrandType:as}$	32
RNA1{r(A)p.r(G)p.r(C)p.r(C)p.r(U)p.r(C)p.m(C)p.r(A)p.r(A)p.r(A)p.r(C)p.r(U)p.r(C)p.r(C)p.m(U)p.r(A)p.r(G)p.r(C)p.r(U)p.r(T)p.r(T)}|RNA2{r(A)p.r(G)p.r(C)p.m(U)p.r(A)p.r(G)p.r(G)p.r(A)p.r(G)p.r(U)p.r(U)p.m(U)p.r(G)p.r(G)p.r(A)p.r(G)p.r(G)p.r(C)p.r(U)p.r(T)p.r(T)}$$$RNA1{StrandType:ss}|RNA2{StrandType:as}$	65
RNA1{r(A)p.r(G)p.r(C)p.r(C)p.r(U)p.r(C)p.r(C)p.r(A)p.r(A)p.[fl2r](A)p.r(C)p.r(U)p.r(C)p.r(C)p.r(U)p.r(A)p.r(G)p.[fl2r](C)p.r(U)p.r(T)p.r(T)}|RNA2{r(A)p.r(G)p.r(C)p.[fl2r](U)p.r(A)p.r(G)p.r(G)p.r(A)p.r(G)p.r(U)p.r(U)p.r(U)p.r(G)p.r(G)p.r(A)p.r(G)p.r(G)p.r(C)p.r(U)p.r(T)p.r(T)}$$$RNA1{StrandType:ss}|RNA2{StrandType:as}$	69
RNA1{r(A)p.r(G)p.r(C)p.r(C)p.r(U)p.r(C)p.r(C)p.r(A)p.r(A)p.r(A)p.r(C)p.r(U)p.r(C)p.r(C)p.r(U)p.r(A)p.r(G)p.r(C)p.r(U)p.r(T)p.r(T)}|RNA2{r(A)p.r(G)p.r(C)p.m(U)p.r(A)p.r(G)p.r(G)p.r(A)p.r(G)p.r(U)p.r(U)p.m(U)p.r(G)p.r(G)p.r(A)p.r(G)p.r(G)p.r(C)p.r(U)p.r(T)p.r(T)}$$$RNA1{StrandType:ss}|RNA2{StrandType:as}$	70
RNA1{r(A)p.r(G)p.r(C)p.r(G)p.r(A)p.r(U)p.r(C)p.r(C)p.r(C)p.m(G)p.r(A)p.r(A)p.m(C)p.r(A)p.r(A)p.r(G)p.m(U)p.r(A)p.r(U)p.r(T)p.r(T)}|RNA2{r(A)p.m(U)p.r(A)p.r(C)p.r(U)p.m(U)p.r(G)p.r(U)p.r(U)p.r(C)p.r(G)p.r(G)p.r(G)p.r(A)p.r(U)p.r(C)p.r(G)p.r(C)p.r(U)p.r(T)p.r(T)}$$$RNA1{StrandType:ss}|RNA2{StrandType:as}$	84
RNA1{r(A)p.r(G)p.r(C)p.r(G)p.r(A)p.r(U)p.r(C)p.r(C)p.r(C)p.r(G)p.r(A)p.r(A)p.r(C)p.r(A)p.r(A)p.r(G)p.r(U)p.r(A)p.r(U)p.r(T)p.r(T)}|RNA2{r(A)p.m(U)p.r(A)p.r(C)p.r(U)p.r(U)p.r(G)p.r(U)p.r(U)p.r(C)p.r(G)p.r(G)p.r(G)p.r(A)p.r(U)p.r(C)p.r(G)p.r(C)p.r(U)p.r(T)p.r(T)}$$$RNA1{StrandType:ss}|RNA2{StrandType:as}$	85
RNA1{r(A)p.r(G)p.r(C)p.r(G)p.r(G)p.r(G)p.r(G)p.m(U)p.r(A)p.m(U)p.r(G)p.r(A)p.r(A)p.r(G)p.m(A)p.r(G)p.r(C)p.r(U)p.r(U)p.r(T)p.r(T)}|RNA2{r(A)p.r(A)p.r(G)p.r(C)p.r(U)p.r(C)p.r(U)p.r(U)p.m(C)p.r(A)p.m(U)p.r(A)p.r(C)p.r(C)p.r(C)p.r(C)p.r(G)p.r(C)p.r(U)p.r(T)p.r(T)}$$$RNA1{StrandType:ss}|RNA2{StrandType:as}$	85
RNA1{r(A)p.r(G)p.r(C)p.r(G)p.r(G)p.r(G)p.r(G)p.m(U)p.r(A)p.r(U)p.r(G)p.r(A)p.r(A)p.r(G)p.r(A)p.r(G)p.r(C)p.r(U)p.r(U)p.r(T)p.r(T)}|RNA2{r(A)p.r(A)p.r(G)p.r(C)p.r(U)p.r(C)p.r(U)p.r(U)p.r(C)p.r(A)p.m(U)p.r(A)p.r(C)p.r(C)p.r(C)p.r(C)p.r(G)p.r(C)p.r(U)p.r(T)p.r(T)}$$$RNA1{StrandType:ss}|RNA2{StrandType:as}$	82
RNA1{r(A)p.r(G)p.r(C)p.r(U)p.r(C)p.r(U)p.r(U)p.m(U)p.r(G)p.r(U)p.m(C)p.r(A)p.r(C)p.m(C)p.r(U)p.m(C)p.r(U)p.r(C)p.r(U)p.r(T)p.r(T)}|RNA2{r(A)p.r(G)p.r(A)p.r(G)p.r(A)p.r(G)p.r(G)p.m(U)p.r(G)p.r(A)p.m(C)p.r(A)p.r(A)p.r(A)p.r(G)p.r(A)p.r(G)p.r(C)p.r(U)p.r(T)p.r(T)}$$$RNA1{StrandType:ss}|RNA2{StrandType:as}$	34
RNA1{r(A)p.r(G)p.r(C)p.r(U)p.r(C)p.r(U)p.r(U)p.r(U)p.r(G)p.r(U)p.r(C)p.m(A)p.r(C)p.r(C)p.r(U)p.r(C)p.r(U)p.r(C)p.r(U)p.r(T)p.r(T)}|RNA2{r(A)p.r(G)p.r(A)p.r(G)p.r(A)p.r(G)p.r(G)p.r(U)p.r(G)p.r(A)p.m(C)p.m(A)p.r(A)p.r(A)p.r(G)p.r(A)p.r(G)p.r(C)p.r(U)p.r(T)p.r(T)}$$$RNA1{StrandType:ss}|RNA2{StrandType:as}$	37
